Results taken from patent publication US10723741B1, “DNA polymerase IIIC inhibitors and use thereof” (Acurx Pharmaceuticals, LLC, priority 2018, dated 2020).
In brackets after ≈: the same amount, converted by molar mass.

Experiments:
Type in all cases: cell-based
[1] = tested on: Staphylococcus aureus NRS384 (MRSA); experiment: Broth microdilution MIC, S. aureus NRS384 (MRSA); conditions: Staphylococcus aureus; broth microdilution, 37° C., 20 hours; read-out: MIC NRS 384 (MRSA)
Description: (§1) Bacteria tested are Staphylococcus aureus NRS384 (a methicillin-resistant Staphylococcus aureus, MRSA), Staphylococcus aureus ATCC 29213 (a methicillin-sensitive Staphylococcus aureus, MSSA), Streptococcus pneumoniae ATCC 49619, Enterococcus faecalis ATCC 29212, Enterococcus faecium ATCC 700221 (a vancomycin-resistant enterococcus, VRE), Bacillus subtilis ATCC 6633, and Escherichia coli ATCC 25922.
(§2) Staphylococcus aureus NRS384 was obtained from NARSA (Network on Antimicrobial Resistance in Staphylococcus aureus, now the strain collection is in BEI resources). Other bacterial isolates were from ATCC (The American Type Culture Collection). Upon receiving the bacteria samples from aforementioned institutes, the bacteria were cultured according to the manuals provided by the suppliers. The bacteria were stored in 25% glycerol (final concentration) at −80° C.
(§3) On the day of testing, the compounds were dissolved in pure DMSO (Sigma 276855-1L) to […] as stock. In a v-bottom 96-well plate (Axygen-wipp02280), 20 μl DMSO was added into well 2 to well 12 by manual pipetting. Into well 1, 12.8 μL of compound DMSO stock (20 mg/ml) was added and mixed with 27.2 μl DMSO by pipetting. Two fold serial dilutions were performed by transferring and mixing 20 μl of solution from well 1 to well 2, then well 2 to well 3 and so forth until well 11. The well 12 was loaded with 20 μl DMSO without compounds. This was drug ‘mother plate’. From well 1 to well 12, the drug concentrations in the mother plate were […] in DMSO. A multi-pipette was used to perform the serial dilutions. The concentration may be adjusted according to the potency of the compounds. An Echo® Acoustic liquid handling system may be used to replace manual pipetting to make the daughter plates.
(§4) One day prior to the day of MIC testing, bacterial strains were streaked out from −80° C. glycerol stocks onto MHA plates and incubated at 37° C. for 20 hours. Streptococcus pneumoniae was streaked on blood agar and incubated at 37° C. in 5% CO2. The single colonies were picked by using an inoculation loop (Greiner-731175) and suspended into 5 ml sterile saline. The turbidity of the suspension was adjusted to 0.10 (Siemens MicroScan turbidity meter), equal to ˜1.0×10^8 cfu/ml. The bacterial suspension was diluted 200× in corresponding test medium (Table 1). This was used to inoculate daughter plates.
(§5) For preparing u-bottom 96-well ‘daughter plates’ (Costar 3788), an aliquot of 1 μl solution from mother plate was then replicating transferred into the daughter plate using a multi-pipette.
(§6) An aliquot of 99 μl of the bacterial suspension was inoculated into each well of the daughter plates using a multi-pipette. Each well contained ˜5.0×10^5 cfu/ml bacteria, 1% DMSO and serially diluted compounds at 64, 32, 16, 8, 4, 2, 1, 0.5, 0.25, 0.125, 0.0625 and 0 μg/ml from well 1 to well 12 respectively, in 100 μl corresponding test medium.
(§7) The plates were incubated in ambient atmosphere and in a 37° C. incubator for 20 hours.
(§8) Compounds of the present invention were tested for antibacterial activity against a variety of bacterial organism including Bacillus subtilis, Staphylococcus aureus, Enterococcus faecalis, Enterococcus faecium, Streptococcus pneumoniae and Escherichia coli. […] Compounds described in Examples 2, 44, 53, 56, 90, 134, 212, 213, 214, 218, 222, 304, 305, and 307 had MIC of ≤1 μg/ml against S. aureus NRS 384 (MRSA) (μg/ml) and E. faecium ATCC 700221 (VRE) (μg/ml).

[2] = tested on: Staphylococcus aureus ATCC 29213 (MSSA); experiment: Broth microdilution MIC, S. aureus ATCC 29213 (MSSA); conditions: broth microdilution, 37° C., 20 hours, read-out: MIC S. aureus ATCC 29213 (MSSA)
Description: as §1, §2, §3, §4, §5, §6, §7, §8

[3] = tested on: Enterococcus faecalis ATCC 29212; experiment: Broth microdilution MIC, E. faecalis ATCC 29212; conditions: ATCC29212, broth microdilution, 37° C., 20 hours, read-out: MIC E. faecalis ATCC 29212
Description: as §1, §2, §3, §4, §5, §6, §7, §8

[4] = tested on: Enterococcus faecium ATCC 700221 (VRE); experiment: Broth microdilution MIC, E. faecium ATCC 700221 (VRE); conditions: Enterococcus faecium; broth microdilution, 37° C., 20 hours; read-out: MIC E. faecium ATCC 700221 (VRE)
Description: as §1, §2, §3, §4, §5, §6, §7, §8

[5] = tested on: Streptococcus pneumoniae ATCC 49619; experiment: Broth microdilution MIC, S. pneumoniae ATCC 49619; conditions: ATCC49619, broth microdilution, 37° C., 20 hours, read-out: MIC S. pneumoniae ATCC 49619
Description: as §1, §2, §3, §4, §5, §6, §7, §8

[6] = tested on: Bacillus subtilis ATCC 6633; experiment: Broth microdilution MIC, B. subtilis ATCC 6633; conditions: ATCC6633, broth microdilution, 37° C., 20 hours, read-out: MIC B. subtilis ATCC 6633
Description: as §1, §2, §3, §4, §5, §6, §7, §8

[7] = tested on: Escherichia coli ATCC 25922; experiment: Broth microdilution MIC, E. coli ATCC 25922 (MHIIB w & w/o 4 mM EDTA); conditions: broth microdilution, 37° C., 20 hours; for MIC: Escherichia coli, ATCC25922, without EDTA, read-out: MIC E. coli ATCC 25922; for MIC E. coli ATCC 25922 + 4 mM EDTA: with 4 mM EDTA
Description: as §1, §2, §3, §4, §5, §6, §7, §8

Structure (SMILES) | MIC [1] | MIC [2] | MIC [3] | MIC [4] | MIC [5] | MIC [6] | MIC [7] | MIC E. coli ATCC 25922 + 4 mM EDTA [7]
Cn1ncc2nc(NCc3cncs3)[nH]c(=O)c21 [Compound 20, 1-Methyl-5-((thiazol-5-ylmethyl)amino)-1H-pyrazolo[4,3-d]pyrimidin-7(6H)-one] | > 64 µg/mL | > 64 µg/mL | > 64 µg/mL | > 64 µg/mL | > 64 µg/mL | > 64 µg/mL | > 64 µg/mL | >64 µg/mL
Cn1ncc2nc(NCc3cnco3)[nH]c(=O)c21 [Compound 21, 1-Methyl-5-((oxazol-5-ylmethyl)amino)-1H-pyrazolo[4,3-d]pyrimidin-7(6H)-one] | > 64 µg/mL | > 64 µg/mL | > 64 µg/mL | > 64 µg/mL | > 64 µg/mL | > 64 µg/mL | > 64 µg/mL | >64 µg/mL
Cn1ncc2nc(NCc3ncc[nH]3)[nH]c(=O)c21 [Compound 22, 5-(((1H-imidazol-2-yl)methyl)amino)-1-methyl-1H-pyrazolo[4,3-d]pyrimidin-7(6H)-one] | > 64 µg/mL | > 64 µg/mL | > 64 µg/mL | > 64 µg/mL | > 64 µg/mL | > 64 µg/mL | > 64 µg/mL | >64 µg/mL
Cn1ncc2nc(NCc3cccnn3)[nH]c(=O)c21 [Compound 23, 1-Methyl-5-((pyridazin-3-ylmethyl)amino)-1H-pyrazolo[4,3-d]pyrimidin-7(6H)-one] | > 64 µg/mL | > 64 µg/mL | > 64 µg/mL | > 64 µg/mL | > 64 µg/mL | > 64 µg/mL | > 64 µg/mL | >64 µg/mL
Cn1ncc2nc(NCc3ccc(F)c(Cl)c3)[nH]c(=O)c21 [Compound 24, 5-((3-Chloro-4-fluorobenzyl)amino)-1-methyl-1H-pyrazolo[4,3-d]pyrimidin-7(6H)-one] | 8 µg/mL (≈ 26 µM) | 8 µg/mL (≈ 26 µM) | > 64 µg/mL | 8 µg/mL (≈ 26 µM) | 4 µg/mL (≈ 13 µM) | 8 µg/mL (≈ 26 µM) | > 64 µg/mL | >64 µg/mL
Cn1ncc2nc(NCc3ccc(Cl)cc3)[nH]c(=O)c21 [Compound 25, 5-((4-chlorobenzyl)amino)-1-methyl-1H-pyrazolo[4,3-d]pyrimidin-7(6H)-one] | 8 µg/mL (≈ 27.6 µM) | 8 µg/mL (≈ 27.6 µM) | 16 µg/mL (≈ 55.2 µM) | 16 µg/mL (≈ 55.2 µM) | 4 µg/mL (≈ 13.8 µM) | 8 µg/mL (≈ 27.6 µM) | > 64 µg/mL | 64 µg/mL
Cn1ncc2nc(NCc3cccc(Cl)c3)[nH]c(=O)c21 [Compound 26, 5-((3-Chlorobenzyl)amino)-1-methyl-1H-pyrazolo[4,3-d]pyrimidin-7(6H)-one] | 32 µg/mL (≈ 110 µM) | 32 µg/mL (≈ 110 µM) | 64 µg/mL (≈ 221 µM) | 32 µg/mL (≈ 110 µM) | 16 µg/mL (≈ 55.2 µM) | 16 µg/mL (≈ 55.2 µM) | > 64 µg/mL | 64 µg/mL
Cn1ncc2nc(NCc3ccccc3Cl)[nH]c(=O)c21 [Compound 27, 5-((2-Chlorobenzyl)amino)-1-methyl-1H-pyrazolo[4,3-d]pyrimidin-7(6H)-one] | > 64 µg/mL | > 64 µg/mL | > 64 µg/mL | > 64 µg/mL | > 64 µg/mL | > 64 µg/mL | > 64 µg/mL | 64 µg/mL
